{"source": "patent US20100323012A1", "about": "“Pharmaceutical Compositions Comprising NEP-Inhibitors, Inhibitors of the Endogenous Endothelin Producing System and Diuretics” (Solvay Pharmaceuticals GmbH, priority 2005, published 2010)", "test_system": "spontaneously hypertensive rat", "assay": "Telemetric monitoring of blood pressure and heart rate in spontaneously hypertensive rats, compounds given via drinking water", "type": "in vivo", "settings": "male SHR; for effect on blood pressure (in words): 3 weeks of treatment via drinking water; for DBP (diastolic blood pressure), effect in relation to baseline, group mean of 24 hour means / HR (heart rate), effect in relation to baseline, group mean of 24 hour means / SBP (systolic blood pressure), effect in relation to baseline, group mean of 24 hour means: day 23 (after 3 weeks of treatment) minus baseline (day 3), via drinking water, intended 10 mg/kg/day hydrochlorothiazide, 100 mg/kg/day daglutril, n = 5 per group", "description": "Male spontaneously hypertensive rats (=SHR, insulin resistant strain from Charles River; aged 6 months) were equipped with telemetry transmitters for continuous monitoring of blood pressure and heart rate (TA11PA-C40, DSI, USA). Telemetry transmitters for continuous monitoring of blood pressure, heart rate and locomotor activity (TA11PA-C40, Data Sciences, USA) were implanted intraabdominally under inhalative halothane anesthesia. A midline abdominal incision was made, and the abdominal aorta was visualized by removal of retroperitoneal fat and connective tissue. A ligature was placed caudal of the renal arteries, the aorta was punctured with a 22G needle, and the catheter was advanced into the aorta. The entry point was sealed with tissue adhesive (Vetbond, 3M, USA), the ligature was removed, and the abdominal incision was closed. Measurements of aortic pressure were taken every 5 minutes (=min) for 4 seconds (=s) each at a sampling rate of 500 Hz, and were corrected for the corresponding ambient pressure (ambient pressure monitor, C11PR, Data Sciences, USA).\nAfter 3 days of monitoring under baseline (untreated) conditions, animals received daglutril via their drinking water. The intended daily dose was 100 mg/kg/day of daglutril. The concentration in drinking water was adjusted once per week, resulting in an average drug intake of 98 mg/kg/day.\nIn a second experiment, rats were divided into two treatment groups receiving hydrochlorothiazide or hydrochlorothiazide+daglutril. Compounds were administered via the drinking water, and daily drug intake was measured by weighing the water bottles thrice weekly. Intended daily doses were 10 mg/kg/day of hydrochlorothiazide plus, in the combination group, 100 mg/kg/day of daglutril.\nConcentrations of hydrochlorothiazide and daglutril in the drinking water were adjusted once per week, in order to ensure the intended daily intake of 10 and 100 mg/kg, respectively. The average daily water intake amounted to 57 and 46 ml/kg in the hydrochlorothiazide and hydrochlorothiazide+daglutril group, respectively, resulting in the uptake of 9.5 mg/kg/day of hydrochlorothiazide in the hydrochlorothiazide group, and 9.4 mg/kg/day of hydrochlorothiazide and 94.4 mg/kg/day of daglutril in the combination group.\nThe blood pressure, heart rate and activity values, sampled in 5 min intervals by the Dataquest™ system, were used for calculation of individual 24 hour means. These 24 hour means were exported to Excel, and group mean values of systolic blood pressure (=SBP), diastolic blood pressure (=DBP), heart rate (=HR), and locomotor activity (=ACT) were calculated for the daglutril, hydrochlorothiazide and the hydrochlorothiazide+daglutril groups. For the statistical analysis, a baseline value (pre) was calculated from the last day prior to compound application (day 3), and effects of daglutril, hydrochlorothiazide and hydrochlorothiazide+daglutril were calculated in relation to this baseline value (day 23, i.e. after 3 weeks of treatment, minus baseline value). The statistical comparison was done by using univariate ANOVA at an error level of P<0.05."}
{"smiles": "CCOC(=O)C(CCc1ccccc1)CC1(C(=O)NC2CCc3ccccc3N(CC(=O)O)C2=O)CCCC1", "note": "(centres unmarked) [daglutril, 2-[1-(1-carboxymethyl-2-oxo-2,3,4,5-tetrahydro-1H-benzo[b]azepin-3-ylcarbamoyI)-cyclopentylmethyl]-4-phenyl-butyric acid ethyl ester]", "values": [{"measurement": "effect on blood pressure (in words)", "result": "no effect"}, {"measurement": "DBP (diastolic blood pressure), effect in relation to baseline, group mean of 24 hour means", "result": 2.0, "unit": "mmHg"}, {"measurement": "HR (heart rate), effect in relation to baseline, group mean of 24 hour means", "result": -6.0, "unit": "min⁻¹"}, {"measurement": "SBP (systolic blood pressure), effect in relation to baseline, group mean of 24 hour means", "result": "−0.3", "unit": "mmHg"}]}
{"smiles": "NS(=O)(=O)c1cc2c(cc1Cl)NCNS2(=O)=O", "note": "[HCTZ, hydrochlorothiazide]", "values": [{"measurement": "effect on blood pressure (in words)", "result": "moderate decrease"}, {"measurement": "DBP (diastolic blood pressure), effect in relation to baseline, group mean of 24 hour means", "result": "−7.7", "unit": "mmHg"}, {"measurement": "HR (heart rate), effect in relation to baseline, group mean of 24 hour means", "result": -4.5, "unit": "min⁻¹"}, {"measurement": "SBP (systolic blood pressure), effect in relation to baseline, group mean of 24 hour means", "result": "−11.3", "unit": "mmHg"}]}
